According to US8410112B2, “Compounds useful as inhibitors of ATR kinase” (Vertex Pharmaceuticals Incorporated, priority 2008, dated 2013):

These molecules were tested against T1, full-length ATR (Homo sapiens, UniProt Q13535) (assay: ATR Inhibition Assay (radioactive-phosphate incorporation)). Conditions: Ki(app); 5 nM full-length ATR, 10 μM ATP, 800 μM target peptide, 25° C.
T1 construct: in the presence of 5 nM full-length ATR
Type: biochemical
Method in brief: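 Buffer was 50 mM Tris/HCl pH 7.5, 10 mM MgCl2, 1 mM DTT, with 5 nM enzyme, 10 μM [γ-33P]ATP and 800 μM target peptide at 25 °C. Compound was pre-incubated 10 min before ATP start, and the reaction was stopped after 24 h. Phosphocellulose filter capture; Ki(app) came from non-linear regression of background-corrected initial rates.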

T1 sequence (Q13535 whole entry): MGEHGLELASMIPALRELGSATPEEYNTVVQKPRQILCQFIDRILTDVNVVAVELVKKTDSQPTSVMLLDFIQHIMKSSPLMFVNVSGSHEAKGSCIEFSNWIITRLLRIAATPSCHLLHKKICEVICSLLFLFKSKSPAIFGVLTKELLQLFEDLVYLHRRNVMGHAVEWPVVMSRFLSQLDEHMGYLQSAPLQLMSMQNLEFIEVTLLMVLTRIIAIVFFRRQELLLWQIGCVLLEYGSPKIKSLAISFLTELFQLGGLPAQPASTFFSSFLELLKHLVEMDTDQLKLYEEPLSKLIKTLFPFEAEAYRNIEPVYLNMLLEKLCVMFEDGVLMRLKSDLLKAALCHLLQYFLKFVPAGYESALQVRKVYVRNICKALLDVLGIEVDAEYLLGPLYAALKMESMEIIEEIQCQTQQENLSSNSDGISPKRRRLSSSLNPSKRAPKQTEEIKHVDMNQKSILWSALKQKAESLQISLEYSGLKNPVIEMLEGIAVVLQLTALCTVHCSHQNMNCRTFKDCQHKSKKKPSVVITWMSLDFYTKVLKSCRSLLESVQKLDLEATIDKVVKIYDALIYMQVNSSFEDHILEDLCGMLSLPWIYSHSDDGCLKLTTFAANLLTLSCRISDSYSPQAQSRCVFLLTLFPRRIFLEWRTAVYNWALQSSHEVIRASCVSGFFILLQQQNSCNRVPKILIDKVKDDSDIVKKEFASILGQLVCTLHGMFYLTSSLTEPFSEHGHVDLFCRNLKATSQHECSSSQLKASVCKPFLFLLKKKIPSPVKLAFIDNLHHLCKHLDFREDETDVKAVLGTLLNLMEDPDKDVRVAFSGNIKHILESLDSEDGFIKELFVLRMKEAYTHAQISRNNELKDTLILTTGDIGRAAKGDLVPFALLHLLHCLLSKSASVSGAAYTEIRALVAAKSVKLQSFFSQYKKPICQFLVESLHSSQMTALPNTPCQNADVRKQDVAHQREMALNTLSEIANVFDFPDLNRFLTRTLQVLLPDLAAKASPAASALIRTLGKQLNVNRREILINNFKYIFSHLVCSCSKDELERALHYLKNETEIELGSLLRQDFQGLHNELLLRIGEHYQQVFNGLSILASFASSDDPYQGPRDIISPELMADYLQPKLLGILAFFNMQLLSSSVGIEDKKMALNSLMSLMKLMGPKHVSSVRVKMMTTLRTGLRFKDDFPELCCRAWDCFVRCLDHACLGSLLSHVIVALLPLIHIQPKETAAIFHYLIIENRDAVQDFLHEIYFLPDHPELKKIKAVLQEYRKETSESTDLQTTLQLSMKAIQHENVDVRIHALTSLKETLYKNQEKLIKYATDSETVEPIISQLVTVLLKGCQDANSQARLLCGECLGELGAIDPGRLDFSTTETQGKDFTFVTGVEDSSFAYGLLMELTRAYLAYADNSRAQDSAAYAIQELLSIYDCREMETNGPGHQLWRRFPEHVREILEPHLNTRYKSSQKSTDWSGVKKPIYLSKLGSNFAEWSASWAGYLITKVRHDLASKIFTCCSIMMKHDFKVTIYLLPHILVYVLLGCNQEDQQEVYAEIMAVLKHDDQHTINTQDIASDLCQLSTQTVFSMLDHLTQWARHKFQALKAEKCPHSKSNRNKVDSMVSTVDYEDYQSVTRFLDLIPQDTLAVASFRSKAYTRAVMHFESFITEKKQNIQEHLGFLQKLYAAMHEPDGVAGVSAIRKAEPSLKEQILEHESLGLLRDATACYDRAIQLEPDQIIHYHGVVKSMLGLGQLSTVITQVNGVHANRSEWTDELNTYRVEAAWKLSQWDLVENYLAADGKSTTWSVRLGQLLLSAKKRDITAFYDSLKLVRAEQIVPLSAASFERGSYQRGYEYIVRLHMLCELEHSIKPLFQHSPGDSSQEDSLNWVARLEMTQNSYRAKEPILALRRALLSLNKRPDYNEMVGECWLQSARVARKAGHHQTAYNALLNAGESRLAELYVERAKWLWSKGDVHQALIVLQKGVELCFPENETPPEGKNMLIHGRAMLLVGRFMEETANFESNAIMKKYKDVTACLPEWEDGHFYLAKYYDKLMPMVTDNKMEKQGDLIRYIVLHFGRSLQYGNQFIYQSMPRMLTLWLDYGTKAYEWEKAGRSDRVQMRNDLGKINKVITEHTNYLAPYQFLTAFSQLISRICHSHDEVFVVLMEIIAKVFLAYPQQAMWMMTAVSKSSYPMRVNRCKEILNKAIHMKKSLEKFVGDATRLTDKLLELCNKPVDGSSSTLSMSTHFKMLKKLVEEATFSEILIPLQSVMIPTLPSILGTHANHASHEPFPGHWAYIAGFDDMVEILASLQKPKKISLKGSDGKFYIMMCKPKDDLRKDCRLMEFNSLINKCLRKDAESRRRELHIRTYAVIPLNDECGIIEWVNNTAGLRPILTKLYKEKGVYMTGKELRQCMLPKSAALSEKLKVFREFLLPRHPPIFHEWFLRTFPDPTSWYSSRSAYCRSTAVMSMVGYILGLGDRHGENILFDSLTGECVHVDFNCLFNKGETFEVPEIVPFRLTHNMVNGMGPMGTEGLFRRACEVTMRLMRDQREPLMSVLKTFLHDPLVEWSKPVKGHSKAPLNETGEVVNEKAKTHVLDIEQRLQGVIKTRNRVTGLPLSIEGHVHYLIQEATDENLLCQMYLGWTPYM

SMILES | Ki [nM]
Nc1ncc(N2CCN(C(=O)c3cccnc3)CC2)nc1C(=O)Nc1ccccn1 [Compound I-146, 3-amino-N-(pyridin-2-yl)-6-(4-(pyridine-3-carbonyl)piperazin-1-yl)pyrazine-2-carboxamide] | 1000 to 10000
Cc1ccc2nc(-c3nc(N4CCNC(=O)CC4)cnc3N)[nH]c2c1 [Compound I-65, 1-(5-amino-6-(6-methyl-1H-benzo[d]imidazol-2-yl)pyrazin-2-yl)-1,4-diazepan-5-one] | 1000 to 10000
CCC(CC)C(=O)N[C@H]1CCN(c2cnc(N)c(-c3nc4ccccc4[nH]3)n2)C1 [Compound I-211, (S)-N-(1-(5-amino-6-(1H-benzo[d]imidazol-2-yl)pyrazin-2-yl)pyrrolidin-3-yl)-2-ethylbutanamide] | 1000 to 10000
CC(=O)N1CCCN(c2cnc(N)c(-c3nc4ccc(C)cc4[nH]3)n2)CC1 [Compound I-1, 1-(4-(5-amino-6-(6-methyl-1H-benzo[d]imidazol-2-yl)pyrazin-2-yl)-1,4-diazepan-1-yl)ethanone] | 1000 to 10000
CC(C)C(=O)N1CCN(c2cnc(N)c(-c3nc4ccccc4[nH]3)n2)CC1 [Compound I-199, 1-(4-(5-amino-6-(1H-benzo[d]imidazol-2-yl)pyrazin-2-yl)piperazin-1-yl)-2-methylpropan-1-one] | 1000 to 10000
Nc1ncc(N2CCCC2=O)nc1-c1nc2ccccc2[nH]1 [Compound I-75, 1-(5-amino-6-(1H-benzo[d]imidazol-2-yl)pyrazin-2-yl)pyrrolidin-2-one] | 1000 to 10000
Nc1ncc(N2CCN(CCO)CC2)nc1-c1nnc(-c2ccccc2)o1 [Compound I-306, 2-[4-[5-amino-6-(5-phenyl-1,3,4-oxadiazol-2-yl)pyrazin-2-yl]piperazin-1-yl]ethanol] | 1000 to 10000
CCOC(=O)N1CCN(c2cnc(N)c(-c3nc4ccc(C)cc4[nH]3)n2)CC1 [Compound I-32, ethyl 4-(5-amino-6-(6-methyl-1H-benzo[d]imidazol-2-yl)pyrazin-2-yl)piperazine-1-carboxylate] | 1000 to 10000
COCC(=O)N[C@H]1CCN(c2cnc(N)c(-c3nc4ccccc4[nH]3)n2)C1 [Compound I-182, (S)-N-(1-(5-amino-6-(1H-benzo[d]imidazol-2-yl)pyrazin-2-yl)pyrrolidin-3-yl)-2-methoxyethanamide] | 1000 to 10000
Nc1ncc(N2CCN(C(=O)COc3ccccc3)CC2)nc1-c1nnc(-c2ccccc2)o1 [Compound I-195, 1-(4-(5-amino-6-(5-phenyl-1,3,4-oxadiazol-2-yl)pyrazin-2-yl)piperazin-1-yl)-2-phenoxyethanone] | 1000 to 10000
Cc1ccc2nc(-c3nc(N4CCC(C(N)=O)CC4)cnc3N)[nH]c2c1 [Compound I-14, 1-(5-amino-6-(6-methyl-1H-benzo[d]imidazol-2-yl)pyrazin-2-yl)piperidine-4-carboxamide] | 1000 to 10000
Cc1ccc2nc(-c3nc(N4CCN(c5ccccc5C#N)CC4)cnc3N)[nH]c2c1 [Compound I-50, 2-(4-(5-amino-6-(6-methyl-1H-benzo[d]imidazol-2-yl)pyrazin-2-yl)piperazin-1-yl)benzonitrile] | 1000 to 10000
Nc1ncc(N2CCN(C(=O)C3CCCCC3)CC2)nc1-c1nnc(-c2ccccc2)o1 [Compound I-251, (4-(5-amino-6-(5-phenyl-1,3,4-oxadiazol-2-yl)pyrazin-2-yl)piperazin-1-yl)(cyclohexyl)methanone] | 100 to 1000
Nc1ncc(N2CCN(C(=O)C3CCCC3)CC2)nc1-c1nnc(-c2ccccc2)o1 [Compound I-194, (4-(5-amino-6-(5-phenyl-1,3,4-oxadiazol-2-yl)pyrazin-2-yl)piperazin-1-yl)(cyclopentyl)methanone] | 100 to 1000
CCC(CC)C(=O)N1CCN(c2cnc(N)c(-c3nc4ccccc4[nH]3)n2)CC1 [Compound I-175, 1-(4-(5-amino-6-(1H-benzo[d]imidazol-2-yl)pyrazin-2-yl)piperazin-1-yl)-2-ethylbutan-1-one] | 1000 to 10000

Other lines, results leading:

Ki [nM] | SMILES
< 100 | CCS(=O)(=O)N1CC=C(c2cnc(N)c(-c3nc4cc(C)ccc4[nH]3)n2)CC1 [Compound I-157, 5-(1-(ethylsulfonyl)-1,2,3,6-tetrahydropyridin-4-yl)-3-(5-methyl-1H-benzo[d]imidazol-2-yl)pyrazin-2-amine]
< 100 | NCCCS(=O)(=O)N1CC=C(c2cnc(N)c(-c3nc4ccccc4[nH]3)n2)CC1 [Compound I-331, 5-(1-(3-aminopropylsulfonyl)-1,2,3,6-tetrahydropyridin-4-yl)-3-(1H-benzo[d]imidazol-2-yl)pyrazin-2-amine]
< 100 | CN(C)S(=O)(=O)N1CC=C(c2cnc(N)c(-c3nc4ccccc4[nH]3)n2)CC1 [Compound I-89, 4-(5-amino-6-(1H-benzo[d]imidazol-2-yl)pyrazin-2-yl)-N,N-dimethyl-5,6-dihydropyridine-1(2H)-sulfonamide]
100 to 1000 | Nc1ncc(N2CCN(C(=O)Cc3ccccc3)CC2)nc1-c1nnc(-c2ccccc2)o1 [Compound I-197, 1-(4-(5-amino-6-(5-phenyl-1,3,4-oxadiazol-2-yl)pyrazin-2-yl)piperazin-1-yl)-2-phenylethanone]
< 100 | CC(=O)N1CC=C(c2cnc(N)c(-c3nc4ccccc4[nH]3)n2)CC1 [Compound I-136, 1-(4-(5-amino-6-(1H-benzo[d]imidazol-2-yl)pyrazin-2-yl)-5,6-dihydropyridin-1(2H)-yl)ethanone]
100 to 1000 | CC#CCOC(=O)N1CC=C(c2cnc(N)c(-c3nc4ccccc4[nH]3)n2)CC1 [Compound I-254, but-2-ynyl 4-(5-amino-6-(1H-benzo[d]imidazol-2-yl)pyrazin-2-yl)-5,6-dihydropyridine-1(2H)-carboxylate]
< 100 | Nc1ncc(C2=CCN(S(=O)(=O)c3ccsc3)CC2)nc1-c1nc2ccccc2[nH]1 [Compound I-105, 3-(1H-benzo[d]imidazol-2-yl)-5-(1-(thiophen-3-ylsulfonyl)-1,2,3,6-tetrahydropyridin-4-yl)pyrazin-2-amine]
100 to 1000 | CC(C)(C)C(=O)N1CC=C(c2cnc(N)c(-c3nc4ccccc4[nH]3)n2)CC1 [Compound I-214, 1-(4-(5-amino-6-(1H-benzo[d]imidazol-2-yl)pyrazin-2-yl)-5,6-dihydropyridin-1(2H)-yl)-2,2-dimethylpropan-1-one]
100 to 1000 | Nc1ncc(N2CCN(S(=O)(=O)C3CCCC3)CC2)nc1C(=O)Nc1ccccn1 [Compound I-248, 3-amino-6-(4-(cyclopentylsulfonyl)piperazin-1-yl)-N-(pyridin-2-yl)pyrazine-2-carboxamide]
100 to 1000 | COCCOC(=O)N1CC=C(c2cnc(N)c(-c3nc4ccccc4[nH]3)n2)CC1 [Compound I-243, 2-methoxyethyl 4-(5-amino-6-(1H-benzo[d]imidazol-2-yl)pyrazin-2-yl)-5,6-dihydropyridine-1(2H)-carboxylate]
100 to 1000 | CNCc1ccc(-c2nnc(-c3nc(N4CCC(O)C4)cnc3N)o2)cc1 (stereo not drawn) [Compound I-371, (35)-1-[5-Amino-6-[5-[4-(methylaminomethyl)phenyl]-1,3,4-oxadiazol-2-yl]pyrazin-2-yl]pyrrolidin-3-ol]
100 to 1000 | CNCc1ccc(-c2nnc(-c3nc(N4C[C@@H]5C(C(=O)O)[C@@H]5C4)cnc3N)o2)cc1 (stereo partly drawn) [Compound I-349, (1R,5S)-3-[5-Amino-6-[5-[4-(methylaminomethyl)phenyl]-1,3,4-oxadiazol-2-yl]pyrazin-2-yl]-3-azabicyclo[3.1.0]hexane-6-carboxylic acid]
100 to 1000 | CCS(=O)(=O)N1CCN(c2cnc(N)c(C(=O)Nc3ccccc3)n2)CC1 [Compound I-20, 3-amino-6-(4-(ethylsulfonyl)piperazin-1-yl)-N-phenylpyrazine-2-carboxamide]
100 to 1000 | Nc1ncc(N2CCN(C(=O)N3CCCC3)CC2)nc1-c1nnc(-c2ccccc2)o1 [Compound I-223, (4-(5-amino-6-(5-phenyl-1,3,4-oxadiazol-2-yl)pyrazin-2-yl)piperazin-1-yl)(pyrrolidin-1-yl)methanone]
< 100 | CCS(=O)(=O)N1CC=C(c2cnc(N)c(-c3nc4c(F)cccc4[nH]3)n2)CC1 [Compound I-155, 5-(1-(ethylsulfonyl)-1,2,3,6-tetrahydropyridin-4-yl)-3-(4-fluoro-1H-benzo[d]imidazol-2-yl)pyrazin-2-amine]
100 to 1000 | CCC(=O)N1CCN(c2cnc(N)c(-c3nnc(-c4ccc(CNC)cc4)o3)n2)CC12CC2 [Compound I-363, 1-(7-(5-Amino-6-(5-(4-((methylamino)methyl)phenyl)-1,3,4-oxadiazol-2-yl)pyrazin-2-yl)-4,7-diazaspiro[2.5]octan-4-yl)propan-1-one]
100 to 1000 | CCS(=O)(=O)N1CCN(c2cnc(N)c(-c3cc(-c4ccccc4)ncn3)n2)CC1 [Compound I-74, 5-(4-(ethylsulfonyl)piperazin-1-yl)-3-(6-phenylpyrimidin-4-yl)pyrazin-2-amine]
< 100 | CCCS(=O)(=O)N1CC=C(c2cnc(N)c(-c3nnc(-c4ccccc4)o3)n2)CC1 [Compound I-124, 3-(5-phenyl-1,3,4-oxadiazol-2-yl)-5-(1-(propylsulfonyl)-1,2,3,6-tetrahydropyridin-4-yl)pyrazin-2-amine]
< 100 | Nc1ncc(C2=CCN(C(=O)N3CCOCC3)CC2)nc1-c1nnc(-c2ccccc2)o1 [Compound I-217, (4-(5-amino-6-(5-phenyl-1,3,4-oxadiazol-2-yl)pyrazin-2-yl)-5,6-dihydropyridin-1(2H)-yl)(morpholino)methanone]
100 to 1000 | CCC(=O)N1CCN(c2cnc(N)c(-c3nnc(-c4ccc(CNC)cc4)o3)n2)C[C@H]1C(C)C [Compound I-333, 1-[(2R)-4-[5-Amino-6-[5-[4-(methylaminomethyl)phenyl]-1,3,4-oxadiazol-2-yl]pyrazin-2-yl]-2-isopropyl-piperazin-1-yl]propan-1-one]
< 100 | CNCc1ccc(-c2nnc(-c3nc(N4C[C@H]5CCC(OS(C)(=O)=O)[C@H]5C4)cnc3N)o2)cc1 (stereo partly drawn) [Compound I-320]
